# Like-named read-outs stand apart in the source and are kept apart here.
# Assays:
# [1] = tested on: CD-1 male mice; experiment: Passivity test (sleep induction and sleep time); assay type: in vivo; conditions: for Effect on GHB sleep time: Example 6: 7.93 mmol/kg of named agent mixed in solution with GHB 7.93 mmol/kg, oral gavage, 8 mice; for Effect on GHB induced sleep time: 800 mg/kg i.p. of named compound followed immediately by GHB 800 mg/kg i.p.
# Experimental: (§1) CD-1 male mice (30-40 g) were housed 3 to 4 per cage in the animal care facility on a 12 hour light dark cycle with free access to water and food for at least 1 week before testing.
# The passivity test developed by Irwing was used to determine sleep time. After GHB administration, the mice were placed in an unusual position and a score of 2, 4, 6, or 8 was given when the mice ceased to struggle against respectively being suspended vertically, rotated horizontally onto their backs, suspended by their hind limbs or suspended by their forelimbs. Scores on the passivity test were determined every 10 minutes after GHB administration. […] The time between scores of 8 and 2 was defined as the total sleep time.
# (§2) Statistical significance between control and treated groups at each time point in the present study was determined by student's t-test. Note that values of motor activity were expressed as a percentage of the baseline value which was normalized to 100%.
# The optimal dose of GHB for inducing sleep was determined with the passivity test. GHB was dissolved in 0.9% NaCl and 1% Tween 80 and delivered intraperitoneally (i.p.) to 4 groups of 6 mice that had not been fasting. Each group received either 200 mg/kg, 400 mg/kg, 600 mg/kg and 800 mg/kg. […] For this reason, this dose was used in the initial exploratory studies.
# [2] = tested on: CD-1 male mice; assay type: in vivo; conditions: for Effect on GHB induced motor inhibition: Example 3: named compound 800 mg/kg i.p. 2 or 15 minutes before GHB 800 mg/kg i.p., mice not fasting; for Effect on motor depression by oral GHB: Example 5: named compound 1200 mg/kg i.p. with GHB 1200 mg/kg orally
# Experimental: as §1
# The Rota-rod is a validated and sensitive tool that has been developed to document neurological deficits after pharmacological treatments. In this test, mice are placed on an accelerating Rota-rod whose revolutions per minute increase from 4 to 40 cycles per minute in about 4 minutes. The time it takes for the mice to fall off the rod is the end point of the test. Initially, the mice were given 3 practice runs on the rod to familiarize themselves with the test procedure. The time that mice remained on the rod was usually between five and ten minutes. A baseline measure was then made, the test drug given and the test procedure run every 20 minutes starting at time 0, immediately after drug administration. The mice were tested for 160 minutes after GHB administration although in some experiments recordings were made for as long as 280 minutes. Motor activity was expressed as a percentage of the baseline value. The time it took the mice to fall off the rod at a given time point after drug administration was divided by the time it took at baseline.
# as §2
# [3] = previous work (ref. 7); rats, tracer doses of GHB, intravenous infusion; cited from earlier work
# [4] = cited from earlier work
structure (smiles),measurement,setting,value
"O=C([O-])[C@@H](O)[C@@H](O)[C@H](O)[C@@H](O)CO.[Na+] [G, L-gulonic acid sodium salt]",Effect on GHB sleep time,[1],almost doubled the sleep time
same,Effect on motor inhibition produced by GHB,"[2]; mouse, in vivo, po",significantly prolonged and deepened the motor inhibition produced by GHB
same,Effect on motor performance on its own,"[2]; mouse, in vivo, po",had no effect on motor performance
same,"Percent of motor activity after GHB administration, 0′","[2]; mouse, in vivo, po",168 ± 5%
same,"Percent of motor activity after GHB administration, 20′","[2]; mouse, in vivo, po",50 ± 24%
same,"Percent of motor activity after GHB administration, 40′","[2]; mouse, in vivo, po",303 ± 12%
same,"Percent of motor activity after GHB administration, 60′","[2]; mouse, in vivo, po",183 ± 4%
same,"Percent of motor activity after GHB administration, 80′","[2]; mouse, in vivo, po",156 ± 2%
same,"Percent of motor activity after GHB administration, 100′","[2]; mouse, in vivo, po",66 ± 9%
same,"Percent of motor activity after GHB administration, 160′","[2]; mouse, in vivo, po",126 ± 3%
same,"Percent of motor activity after GHB administration, 220′","[2]; mouse, in vivo, po",303 ± 23%
same,"Percent of motor activity after GHB administration, 280′","[2]; mouse, in vivo, po",141 ± 5%
same,Effect on plasma half-life of GHB,[3],can extend the plasma half-life of GHB
"O=C(O)Cc1ccccc1 [PA, phenylacetic acid]",Effect on inhibitory effects of GHB on motor activity,"[2]; Example 4: phenylacetic acid […] mg/kg mixed in solution with GHB 800 mg/kg, oral, vs GHB 800 mg/kg oral alone",significantly intensified and prolonged the inhibitory effects of GHB on motor activity
"O=C([O-])[C@H](O)[C@@H](O)[C@H](O)[C@H](O)CO.[Na+] [GA, D-gluconic acid sodium salt]",Effect on GHB induced sleep time,[1]; non-fasting mice,did not show an increase in GHB induced sleep time
"O=C1O[C@H](CO)[C@@H](O)[C@H](O)[C@H]1O [GAL, D-gluconic acid lactone]",Effect on GHB sleep time,[1],appeared to increase the sleep time
same,GHB induced sleep time,"[1]; non-fasting mice, n=6/group, GHB 800 mg/kg i.p. alone or immediately after 800 mg/kg i.p. of the named compound",155 ± 11 min
same,Effect on GHB induced motor inhibition,[2],most effectively potentiated GHB induced motor inhibition with significant effects at the 160 minute mark
same,Effect on motor depression by oral GHB,[2],further significantly enhanced
same,Effect on motor inhibition produced by GHB,[2]; Example 6: named agent 7.93 mmol/kg orally together with GHB 7.93 mmol/kg,neither oral gluconic acid lactone or gulonolactone augmented the depressant effects of GHB
"O=C1O[C@H]([C@@H](O)CO)[C@H](O)[C@@H]1O [GL, L-gulono-γ-lactone]",Effect on GHB sleep time,[1],appeared to increase the sleep time
same,Effect on motor depression by oral GHB,[2],further significantly enhanced
same,Effect on motor inhibition produced by GHB,"[2]; mouse, in vivo, po",neither oral gluconic acid lactone or gulonolactone augmented the depressant effects of GHB
O=C([O-])Cc1ccccc1.[Na+] [phenylacetate sodium salt],Solubility in saline,[4],can be readily dissolved in saline
"O=C[C@H](O)[C@@H](O)[C@H](O)[C@H](O)C(=O)[O-].[Na+] [GCA, D-glucuronic acid sodium salt]",Effect on GHB induced sleep time,[1]; non-fasting mice,did not show an increase in GHB induced sleep time
same,Effect on GHB induced motor inhibition,[2],potentiated and prolonged the motor inhibition produced by GHB
same,Effect on plasma half-life of GHB,[3],decreased the plasma half-life of GHB

# Source: US20060069040A1, “GHB compositions” (priority 2004, published 2006)
